We go through 6 molecules from PubChem BioAssay AID1745844 (Carcinogenic Potency Database (CPDB), 2022).

Where “and” joins values, the source holds several entries; their conditions need not be identical. Identical values can stand only once. Calls of active or inactive are those of the source. No rule for the calls is given here.

The data set relates to rodent lifetime carcinogenesis bioassay, tumor incidence TD50. The data set can be described thus: chronic cancer bioassays in animals – CPDB, compiled studies (AID 1745844).
The mark [1] stands for this setting: mouse, strain B6AKF1, females, oral dosing, site: any site (literature study), lesion: several types, types named in the paper, dosed 76 weeks, study length 76 weeks.
The mark [2] stands for this setting: mouse, strain B6AKF1, females, oral dosing, site: liver, lesion: hepatoma, dosed 76 weeks, study length 76 weeks.
[3] abbreviates: mouse, strain B6AKF1, females, oral dosing, site: lung, lesion: adenoma, dosed 76 weeks, study length 76 weeks.
Where [4] appears, read: mouse, strain B6AKF1, males, oral dosing, site: any site (literature study), lesion: several types, types named in the paper, dosed 76 weeks, study length 76 weeks.
Where [5] appears, read: mouse, strain B6AKF1, males, oral dosing, site: liver, lesion: hepatoma, dosed 76 weeks, study length 76 weeks.
Where [6] appears, read: mouse, strain B6AKF1, males, oral dosing, site: lung, lesion: adenoma, dosed 76 weeks, study length 76 weeks.
The mark [7] stands for this setting: mouse, strain B6C3F1, females, oral dosing, site: liver, lesion: hepatoma, dosed 76 weeks, study length 76 weeks.
Where [8] appears, read: mouse, strain B6C3F1, males, oral dosing, site: any site (literature study), lesion: several types, types named in the paper, dosed 76 weeks, study length 76 weeks.
The mark [9] stands for this setting: mouse, strain B6C3F1, males, oral dosing, site: liver, lesion: hepatoma, dosed 76 weeks, study length 76 weeks.
[10] abbreviates: mouse, strain B6C3F1, males, oral dosing, site: lung, lesion: adenoma, dosed 76 weeks, study length 76 weeks.

For orientation: TD50 means the 50% point of the dose-response relation for the toxic effect studied. Take `CCN(CC)C(=S)[S-].CCN(CC)C(=S)[S-].[Zn+2]`: the carcinogen call was “negative (inactive)” under setting [1]; “negative (inactive)” under setting [2]; “negative (inactive)” under setting [3]; “negative (inactive)” under setting [6]; “negative (inactive)” (mouse, strain B6C3F1, females, oral dosing, site: any site (literature study), lesion: one or several types, types not named, dosed 76 weeks, study length 76 weeks); “negative (inactive)” under setting [7]. For the same molecule, the carcinogen call was “negative (inactive)” (mouse, strain B6C3F1, females, oral dosing, site: lung, lesion: several types, types named in the paper, dosed 76 weeks, study length 76 weeks) and “negative (inactive)” under setting [9]. Also, the TD50 is, setting by setting: under setting [4], 86.7 mg/kg/day (inactive); under setting [5], 205 mg/kg/day (inactive); under setting [8], 28.5 mg/kg/day (inactive); under setting [10], 46.2 mg/kg/day (inactive).
On to `Cc1cc(C)c(N=Nc2c(O)c(S(=O)(=O)O)cc3cc(S(=O)(=O)O)ccc23)cc1C`, for which the TD50 runs as follows: (rat, strain Bethesda black, both sexes, in feed, site: liver, lesion: carcinoma, dosed 104 weeks, study length 104 weeks) 2480 mg/kg/day; (rat, strain Bethesda black, both sexes, in feed, site: liver, lesion: hepatocellular tumor, benign, dosed 104 weeks, study length 104 weeks) 3540 mg/kg/day; (rat, strain Bethesda black, both sexes, in feed, site: liver, lesion: nodular hyperplasia, dosed 104 weeks, study length 104 weeks) 3040 mg/kg/day; (rat, strain Bethesda black, both sexes, in feed, site: liver, lesion: several types, types named in the paper, dosed 104 weeks, study length 104 weeks) 746 mg/kg/day; (rat, strain Not specified, females, in feed, site: bile duct, lesion: adenoma, dosed 65 weeks, study length 65 weeks) 1570 mg/kg/day; (rat, strain Not specified, females, in feed, site: liver, lesion: carcinoma, dosed 65 weeks, study length 65 weeks) 1990 mg/kg/day. The TD50 runs as follows: (rat, strain Not specified, males, in feed, site: bile duct, lesion: adenoma, dosed 65 weeks, study length 65 weeks) 755 mg/kg/day; (rat, strain Not specified, males, in feed, site: liver, lesion: carcinoma, dosed 65 weeks, study length 65 weeks) 1240 mg/kg/day; (rat, strain Osborne-Mendel, both sexes, in feed, site: any site (literature study), lesion: malignant tumor, dosed 104 weeks, study length 104 weeks) 12900 mg/kg/day; (rat, strain Osborne-Mendel, both sexes, in feed, site: liver, lesion: carcinoma, dosed 104 weeks, study length 104 weeks) 7540 mg/kg/day; (rat, strain Osborne-Mendel, both sexes, in feed, site: liver, lesion: hepatocellular tumor, benign, dosed 104 weeks, study length 104 weeks) 909 mg/kg/day; (rat, strain Osborne-Mendel, both sexes, in feed, site: liver, lesion: nodular hyperplasia, dosed 104 weeks, study length 104 weeks) 639 mg/kg/day. In addition, the TD50 (rat, strain Wistar, both sexes, in feed, site: liver, lesion: one or several types, types not named, dosed 65 weeks, study length 65 weeks) is 225 mg/kg/day and 394 mg/kg/day; the TD50 (rat, strain Wistar, both sexes, in feed, site: liver, lesion: one or several types, types not named, dosed 70 weeks, study length 70 weeks) was 314 mg/kg/day and 420 mg/kg/day.
As to `C=CCN(N)CC=C`, the TD50 (mouse, strain Swiss albino, females, in drinking water, site: forestomach, lesion: squamous-cell papilloma, dosed 100 weeks, study length 100 weeks) was 332 mg/kg/day; the TD50 (mouse, strain Swiss albino, females, in drinking water, site: lung, lesion: adenocarcinoma, dosed 100 weeks, study length 100 weeks) is 112 mg/kg/day; the TD50 (mouse, strain Swiss albino, females, in drinking water, site: lung, lesion: adenoma, dosed 100 weeks, study length 100 weeks) came to 37.8 mg/kg/day; the TD50 (mouse, strain Swiss albino, females, in drinking water, site: lung, lesion: several types, types named in the paper, dosed 100 weeks, study length 100 weeks) was 34.9 mg/kg/day; the TD50 (mouse, strain Swiss albino, males, in drinking water, site: forestomach, lesion: squamous-cell papilloma, dosed 93 weeks, study length 93 weeks) was 48.1 mg/kg/day; the TD50 (mouse, strain Swiss albino, males, in drinking water, site: liver, lesion: angiosarcoma, dosed 93 weeks, study length 93 weeks) is 723 mg/kg/day (inactive). Also, the TD50 runs as follows: (mouse, strain Swiss albino, males, in drinking water, site: lung, lesion: adenocarcinoma, dosed 93 weeks, study length 93 weeks) 38.9 mg/kg/day; (mouse, strain Swiss albino, males, in drinking water, site: lung, lesion: adenoma, dosed 93 weeks, study length 93 weeks) 29.8 mg/kg/day; (mouse, strain Swiss albino, males, in drinking water, site: lung, lesion: several types, types named in the paper, dosed 93 weeks, study length 93 weeks) 25.7 mg/kg/day. Also, the carcinogen call reads like this: (mouse, strain Swiss albino, females, in drinking water, site: liver, lesion: angioma, dosed 100 weeks, study length 100 weeks) “negative (inactive)”; (mouse, strain Swiss albino, females, in drinking water, site: liver, lesion: angiosarcoma, dosed 100 weeks, study length 100 weeks) “negative (inactive)”; (mouse, strain Swiss albino, males, in drinking water, site: liver, lesion: angioma, dosed 93 weeks, study length 93 weeks) “negative (inactive)”.
Turning to `O=c1cc(CO)occ1O`, the TD50 is 20900 mg/kg/day (mouse, strain B6C3F1, females, in feed, site: liver, lesion: hepatocellular adenoma, dosed 84 weeks, study length 88 weeks); 2610 mg/kg/day (mouse, strain B6C3F1, females, in feed, site: thyroid gland, lesion: follicular-cell adenoma, dosed 84 weeks, study length 88 weeks); 19700 mg/kg/day (mouse, strain B6C3F1, males, in feed, site: liver, lesion: hepatocellular adenoma, dosed 84 weeks, study length 88 weeks); 323 mg/kg/day (mouse, strain B6C3F1, males, in feed, site: thyroid gland, lesion: follicular-cell adenoma, dosed 52 weeks, study length 52 weeks); 927 mg/kg/day (mouse, strain B6C3F1, males, in feed, site: thyroid gland, lesion: follicular-cell adenoma, dosed 84 weeks, study length 88 weeks).
On to `CCCCCC(N)=O`, for which the carcinogen call is, setting by setting: (mouse, strain C57BL/6, females, in feed, site: liver, lesion: hepatocellular carcinoma, dosed 52 weeks, study length 69 weeks) “negative (inactive)”; (rat, strain Fischer 344, females, in feed, site: liver, lesion: one or several types, types not named, dosed 52 weeks, study length 69 weeks) “negative (inactive)”; (rat, strain Fischer 344, males, in feed, site: liver, lesion: one or several types, types not named, dosed 52 weeks, study length 69 weeks) “negative (inactive)”. In addition, the TD50 runs as follows: (mouse, strain C57BL/6, females, in feed, site: lung, lesion: alveolar/bronchiolar adenoma, dosed 52 weeks, study length 69 weeks) 37200 mg/kg/day (inactive); (mouse, strain C57BL/6, females, in feed, site: stomach, lesion: squamous-cell papilloma, dosed 52 weeks, study length 69 weeks) 8900 mg/kg/day; (mouse, strain C57BL/6, males, in feed, site: all sites, lesion: malignant lymphoma, histiocytic type, dosed 52 weeks, study length 69 weeks) 2140 mg/kg/day; (mouse, strain C57BL/6, males, in feed, site: all sites, lesion: several types, types named in the paper, dosed 52 weeks, study length 69 weeks) 1950 mg/kg/day; (mouse, strain C57BL/6, males, in feed, site: liver, lesion: hemangiosarcoma, dosed 52 weeks, study length 69 weeks) 25300 mg/kg/day (inactive); (mouse, strain C57BL/6, males, in feed, site: liver, lesion: malignant lymphoma, histiocytic type, dosed 52 weeks, study length 69 weeks) 25300 mg/kg/day. Moreover, the TD50 by setting is: (mouse, strain C57BL/6, males, in feed, site: lung, lesion: alveolar/bronchiolar adenoma, dosed 52 weeks, study length 69 weeks) 3490 mg/kg/day (inactive); (mouse, strain C57BL/6, males, in feed, site: multiple organs, lesion: malignant lymphoma, histiocytic type, dosed 52 weeks, study length 69 weeks) 2660 mg/kg/day.
Turning to `CCN(CC)C(=S)[S-].CCN(CC)C(=S)[S-].[Cd+2]`, the TD50 is 47.5 mg/kg/day (inactive) under setting [1]; 18 mg/kg/day (inactive) (mouse, strain B6C3F1, females, oral dosing, site: any site (literature study), lesion: several types, types named in the paper, dosed 76 weeks, study length 76 weeks); 57.4 mg/kg/day (inactive) (mouse, strain B6C3F1, females, oral dosing, site: lung, lesion: adenoma, dosed 76 weeks, study length 76 weeks); 6.2 mg/kg/day (inactive) under setting [8]; 16.7 mg/kg/day (inactive) under setting [9]; 25.9 mg/kg/day (inactive) under setting [10]. In addition, the carcinogen call runs as follows: under setting [2], “negative (inactive)”; under setting [3], “negative (inactive)”; under setting [4], “negative (inactive)”; under setting [5], “negative (inactive)”; under setting [6], “negative (inactive)”; under setting [7], “negative (inactive)”.
